The source of these data is paper PMC5778071, “Development of matrix metalloproteinase-targeted probes for lung inflammation detection with positron emission tomography” (Scientific Reports, 2018).

By IC50 is commonly meant the point on the concentration scale where inhibition reaches its midpoint.

Common to all, as to type: biochemical
The target in one test is T1, recombinant human MMP-2 (Homo sapiens, UniProt P08253).
T1 construct: purchased Anaspec Inc. AS72005
T1 sequence (P08253 110-660): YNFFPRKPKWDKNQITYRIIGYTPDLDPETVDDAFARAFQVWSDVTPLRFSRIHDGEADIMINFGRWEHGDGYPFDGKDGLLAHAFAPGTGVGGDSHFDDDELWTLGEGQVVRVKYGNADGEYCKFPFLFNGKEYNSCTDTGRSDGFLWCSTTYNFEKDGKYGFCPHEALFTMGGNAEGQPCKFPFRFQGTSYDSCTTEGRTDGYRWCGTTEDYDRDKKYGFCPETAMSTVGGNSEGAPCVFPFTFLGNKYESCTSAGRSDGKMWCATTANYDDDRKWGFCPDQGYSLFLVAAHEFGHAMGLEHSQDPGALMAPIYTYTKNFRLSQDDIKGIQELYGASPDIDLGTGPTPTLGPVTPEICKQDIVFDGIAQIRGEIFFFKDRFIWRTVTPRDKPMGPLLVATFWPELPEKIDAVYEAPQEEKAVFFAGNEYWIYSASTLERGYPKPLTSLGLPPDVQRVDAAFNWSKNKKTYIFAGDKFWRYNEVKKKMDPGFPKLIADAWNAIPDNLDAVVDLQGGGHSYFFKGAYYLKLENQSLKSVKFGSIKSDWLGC
Kind of test: Competitive fluorogenic enzyme activity assay, MMP-2. As to conditions: fluorogenic substrate 5 μM, 5 nM enzyme, 30 min; read-out: IC50 toward MMP-2. The method, then:
(§1) Determination of the IC50 toward human MMP-2, MMP-9, MMP-12 and MMP-13 was performed by a competitive enzyme activity assay according to a literature procedure. The assay was performed by incubating 5 μM of the synthesized fluorogenic peptide substrate Mca-Pro-Leu-Gly-Leu-Dpa(Dnp)-Ala-Arg-NH2 with 5 nM recombinant human MMP-2 (AS72005, Anaspec Inc., CA, USA), MMP-9 (911-MP, R&D Systems, MN, USA), MMP-12 (917-MP, R&D Systems) and MMP-13 (AS72011, Anaspec) along with various concentrations of ML5, I-ML5, PFB, PFP, IPFB, and IPFP (0.2–365 nM) in a buffer (pH 7.5, 50 mM tris(hydroxymethyl)aminomethane, 10 mM calcium chloride, 150 mM sodium chloride, and 0.01% Brij-35) containing 5% dimethyl sulfoxide. The increase in fluorescence over time was measured using a SpectraMax M2e microplate reader (Molecular Devices Inc., CA, USA) with an excitation wavelength of 325 nm and an emission wavelength of 395 nm. The fluorescence intensity after 30 min was plotted as a function of the concentration of each of the compounds on a logarithmic scale to produce an inhibition curve that was subsequently fit with a sigmoidal function by a least squares method. The IC50 values were calculated from the inhibition curves using GraphPad Prism 6 (GraphPad Software, Inc., CA, USA).

The next test addresses T2, recombinant human MMP-13 (Homo sapiens, UniProt P45452).
T2 construct: purchased Anaspec AS72011
Kind of test: Competitive fluorogenic enzyme activity assay, MMP-13. As to conditions: fluorogenic substrate 5 μM, 5 nM enzyme, 30 min; read-out: IC50 toward MMP-13. The method, then:
as §1

The next test has as its target T3, recombinant human MMP-9 (Homo sapiens, UniProt P14780).
T3 construct: purchased R&D Systems 911-MP
Kind of test: Competitive fluorogenic enzyme activity assay, MMP-9. The note with it: fluorogenic substrate 5 μM, 5 nM enzyme, 30 min; read-out: IC50 toward MMP-9. The method, then:
as §1

Another test addresses T4, recombinant human MMP-12 (Homo sapiens, UniProt P39900).
T4 construct: purchased R&D Systems 917-MP
Kind of test: Competitive fluorogenic enzyme activity assay, MMP-12. As to conditions: for IC50: fluorogenic substrate 5 μM, 5 nM enzyme, 30 min, read-out: IC50 toward MMP-12. The method, then: Determination of the IC50 toward human MMP-2, MMP-9, MMP-12 and MMP-13 was performed by a competitive enzyme activity assay according to a literature procedure. […] The increase in fluorescence over time was measured using a SpectraMax M2e microplate reader (Molecular Devices Inc., CA, USA) with an excitation wavelength of 325 nm and an emission wavelength of 395 nm. The fluorescence intensity after 30 min was plotted as a function of the concentration of each of the compounds on a logarithmic scale to produce an inhibition curve that was subsequently fit with a sigmoidal function by a least squares method. The IC50 values were calculated from the inhibition curves using GraphPad Prism 6 (GraphPad Software, Inc., CA, USA).

T3 sequence (P14780 94-707): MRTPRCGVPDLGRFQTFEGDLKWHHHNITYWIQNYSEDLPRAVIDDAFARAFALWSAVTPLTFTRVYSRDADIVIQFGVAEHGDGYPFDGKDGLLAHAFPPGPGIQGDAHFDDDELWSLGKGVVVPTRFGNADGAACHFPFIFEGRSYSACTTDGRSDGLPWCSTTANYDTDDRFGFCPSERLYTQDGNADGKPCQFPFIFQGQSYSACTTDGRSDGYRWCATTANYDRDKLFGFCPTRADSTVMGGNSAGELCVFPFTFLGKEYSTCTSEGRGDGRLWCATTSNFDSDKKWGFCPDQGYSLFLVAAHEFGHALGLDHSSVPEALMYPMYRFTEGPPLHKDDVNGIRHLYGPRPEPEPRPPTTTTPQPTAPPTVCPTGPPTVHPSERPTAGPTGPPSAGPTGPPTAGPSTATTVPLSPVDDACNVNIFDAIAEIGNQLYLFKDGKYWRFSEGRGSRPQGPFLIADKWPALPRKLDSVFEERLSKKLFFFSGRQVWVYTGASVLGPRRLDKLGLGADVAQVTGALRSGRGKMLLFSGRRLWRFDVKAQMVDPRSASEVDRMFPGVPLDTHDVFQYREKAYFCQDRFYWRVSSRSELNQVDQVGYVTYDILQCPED
T4 sequence (P39900 106-470): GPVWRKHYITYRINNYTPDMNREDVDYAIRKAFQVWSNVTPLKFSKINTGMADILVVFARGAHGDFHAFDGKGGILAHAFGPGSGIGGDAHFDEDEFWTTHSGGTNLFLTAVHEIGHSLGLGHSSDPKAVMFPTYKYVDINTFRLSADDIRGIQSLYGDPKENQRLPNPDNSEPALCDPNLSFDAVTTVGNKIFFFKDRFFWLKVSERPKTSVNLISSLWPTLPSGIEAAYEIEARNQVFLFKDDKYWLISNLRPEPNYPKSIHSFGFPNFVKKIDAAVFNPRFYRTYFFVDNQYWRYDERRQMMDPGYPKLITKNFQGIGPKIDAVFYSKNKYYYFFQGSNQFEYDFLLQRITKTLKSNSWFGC

Take `CC(C)C[C@H](CC(=O)NO)C(=O)N[C@@H](Cc1ccc(I)cc1)C(=O)N[C@@H](CCCCN)C(N)=O` [I-ML5]: the 50% inhibitory concentration (IC50) amounted to 3.7 ± 1 nM on recombinant human MMP-2, 11.8 ± 6.3 nM at recombinant human MMP-13, 13.8 ± 1.5 nM at recombinant human MMP-9 and 2.3 ± 1.1 nM on recombinant human MMP-12.

`CC(C)C[C@H](CC(=O)NO)C(=O)N[C@@H](Cc1ccc(I)cc1)C(=O)N[C@@H](CCCCNC(=O)C(C)F)C(N)=O` (stereo partly drawn) [^18F-IPFP]: the half-maximal inhibitory concentration (IC50) at recombinant human MMP-12 is 1.5 nM.

Turning to `CC(C)C[C@H](CC(=O)NO)C(=O)N[C@@H](Cc1ccccc1)C(=O)N[C@@H](CCCCNC(=O)c1ccc(F)cc1)C(N)=O` [PFB], the IC50 on recombinant human MMP-2 was 77.7 ± 4 nM; on recombinant human MMP-13, 66.1 ± 26.1 nM; at recombinant human MMP-9, 178 ± 24.2 nM; at recombinant human MMP-12, 24.2 ± 14.1 nM.

With `CC(C)C[C@H](CC(=O)NO)C(=O)N[C@@H](Cc1ccccc1)C(=O)N[C@@H](CCCCNC(=O)C(C)F)C(N)=O` (stereo partly drawn) [PFP], the IC50 on recombinant human MMP-2 worked out at 12.5 ± 7.1 nM; on recombinant human MMP-13, 11.1 ± 6.6 nM; at recombinant human MMP-9, 54.1 ± 38.3 nM; on recombinant human MMP-12, 4.5 ± 2.5 nM.

As for `CC(C)C[C@H](CC(=O)NO)C(=O)N[C@@H](Cc1ccc(I)cc1)C(=O)N[C@@H](CCCCNC(=O)c1ccc(F)cc1)C(N)=O` [IPFB], the IC50 at recombinant human MMP-2 was 29.1 ± 9.3 nM; on recombinant human MMP-13, 44.5 ± 21.6 nM; at recombinant human MMP-9 it was 148 ± 30.6 nM; at recombinant human MMP-12 it was 12.3 ± 4 nM.

Turning to `CC(C)C[C@H](CC(=O)NO)C(=O)N[C@@H](Cc1ccc(I)cc1)C(=O)N[C@@H](CCCCNC(=O)C(C)F)C(N)=O` (stereo partly drawn) [IPFP], the IC50 at recombinant human MMP-2 worked out at 4.4 ± 2.3 nM; at recombinant human MMP-13 it was 4.1 ± 1.7 nM; at recombinant human MMP-9, 8.1 ± 2 nM; at recombinant human MMP-12, 1.5 ± 0.8 nM. For the same compound, the “inverse IC50 ratio (selectivity toward MMP-12) relative to MMP-2” value at recombinant human MMP-12 (MMP-12 vs MMP-2) was determined as 2.9. The “inverse IC50 ratio (selectivity toward MMP-12) relative to MMP-9” value at recombinant human MMP-12 (MMP-12 vs MMP-9) stood at 5.4. In addition, the “inverse IC50 ratio (selectivity toward MMP-12) relative to MMP-13” value at recombinant human MMP-12 (MMP-12 vs MMP-13) is on record as 2.7.
